# Assay results as given in patent US6737383B1, “Herbicidal oxadiazolidines” (priority 1999, dated 2004).
# Experiments:
# velvetleaf = assay: Test B pre/postemergence velvetleaf; type: in vivo, Abutilon theophrasti
# How it was run: (§1)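 Test chemicals in a non-phytotoxic solvent mixture with surfactant were sprayed preemergence onto planted seeds and postemergence onto plants 2 to 18 cm tall (1- to 4-leaf stage). After twelve to sixteen days in a greenhouse, injury was visually rated against untreated controls from 0 (no effect) to 10 (complete control).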
# corn = assay: Test B pre/postemergence corn; type: in vivo, Zea mays
# How it was run: as §1
# wild oat = assay: Test B pre/postemergence wild oat; type: in vivo, Avena fatua
# How it was run: as §1
# sugar beet = assay: Test B pre/postemergence sugar beet; type: in vivo, Beta vulgaris
# How it was run: as §1
# giant foxtail = assay: Test B pre/postemergence giant foxtail; type: in vivo, Setaria faberii
# How it was run: as §1
# bedstraw = assay: Test B pre/postemergence bedstraw; type: in vivo, Galium aparine
# How it was run: as §1
# wheat = assay: Test B pre/postemergence wheat; type: in vivo, Triticum aestivum
# How it was run: as §1
# crabgrass = assay: Test B pre/postemergence crabgrass; type: in vivo, Digitaria sanguinalis
# How it was run: as §1
# cocklebur = assay: Test B pre/postemergence cocklebur; type: in vivo, Xanthium strumarium
# How it was run: as §1
# surinam grass = assay: Test B pre/postemergence surinam grass; type: in vivo, Brachiaria decumbens
# How it was run: as §1
# morningglory = assay: Test B pre/postemergence morningglory; type: in vivo, Ipomoea hederacea
# How it was run: as §1
# blackgrass = assay: Test B pre/postemergence blackgrass; type: in vivo, Alopecurus myosuroides
# How it was run: as §1
# soybean = assay: Test B pre/postemergence soybean; type: in vivo, Glycine max
# How it was run: as §1
# pigweed = assay: Test B pre/postemergence pigweed; type: in vivo, Amaranthus retroflexus
# How it was run: as §1
# purple nutsedge = assay: Test B pre/postemergence purple nutsedge; type: in vivo, Cyperus rotundus
# How it was run: as §1
# rape = assay: Test B pre/postemergence rape; type: in vivo, Brassica napus
# How it was run: as §1
# [1] = Postemergence, Rate 62 g/ha, scale 0 to 10, 0 is no effect, 10 is complete control
# [2] = Postemergence, Rate 500 g/ha, scale 0 (no effect) to 10 (complete control)
# [3] = Rate 62 g/ha, Preemergence, scale 0 to 10
# [4] = Rate 125 g/ha, Preemergence, scale 0 to 10 (0 no effect, 10 complete control)
# [5] = Rate 250 g/ha, Postemergence, scale 0 to 10, 0 is no effect, 10 is complete control
# [6] = Rate 500 g/ha, Preemergence, scale 0 to 10 (0 no effect, 10 complete control)
# [7] = Postemergence, Rate 125 g/ha, scale of 0 to 10 where 0 is no effect and 10 is complete control
# [8] = Preemergence, Rate 250 g/ha, scale 0 (no effect) to 10 (complete control)
smiles,measurement,setting,value
COC1CCC(Cn2c(=O)on(C(=O)N(c3ccc(F)cc3)C(C)C)c2=O)=NO1 (centres unmarked) [Compound 766],"Plant response rating, Velvetleaf",velvetleaf; [1],0
same,Velvetleaf plant response rating,velvetleaf; [2],5
same,Velvetleaf plant response rating,velvetleaf; [3],5
same,Velvetleaf plant response rating,velvetleaf; [4],5
same,Velvetleaf plant response rating,velvetleaf; [5],3
same,Velvetleaf plant response rating,velvetleaf; [6],10
same,"Plant response rating, Corn",corn; [1],0
same,Corn plant response rating,corn; [7],0
same,Corn plant response rating,corn; [2],4
same,Corn plant response rating,corn; [8],0
same,Corn plant response rating,corn; [3],0
same,Corn plant response rating,corn; [4],0
same,Corn plant response rating,corn; [5],4
same,Corn plant response rating,corn; [6],3
same,"Plant response rating, Wild oats",wild oat; [1],0
same,Wild oats plant response rating,wild oat; [2],2
same,Wild oats plant response rating,wild oat; [3],3
same,Wild oats plant response rating,wild oat; [4],7
same,Wild oats plant response rating,wild oat; [5],2
same,Wild oats plant response rating,wild oat; [6],10
same,"Plant response rating, Sugarbeets",sugar beet; [1],0
same,Sugarbeets plant response rating,sugar beet; [2],2
same,Sugarbeets plant response rating,sugar beet; [3],2
same,Sugarbeets plant response rating,sugar beet; [4],6
same,Sugarbeets plant response rating,sugar beet; [5],2
same,Sugarbeets plant response rating,sugar beet; [6],9
same,"Plant response rating, Giant foxtail",giant foxtail; [1],0
same,Giant foxtail plant response rating,giant foxtail; [7],8
same,Giant foxtail plant response rating,giant foxtail; [2],9
same,Giant foxtail plant response rating,giant foxtail; [8],9
same,Giant foxtail plant response rating,giant foxtail; [3],9
same,Giant foxtail plant response rating,giant foxtail; [4],9
same,Giant foxtail plant response rating,giant foxtail; [5],9
same,Giant foxtail plant response rating,giant foxtail; [6],10
same,"Plant response rating, Bedstraw",bedstraw; [1],0
same,Bedstraw plant response rating,bedstraw; [7],0
same,Bedstraw plant response rating,bedstraw; [2],3
same,Bedstraw plant response rating,bedstraw; [8],10
same,Bedstraw plant response rating,bedstraw; [3],4
same,Bedstraw plant response rating,bedstraw; [4],9
same,Bedstraw plant response rating,bedstraw; [5],0
same,Bedstraw plant response rating,bedstraw; [6],9
same,"Plant response rating, Wheat",wheat; [1],0
same,Wheat plant response rating,wheat; [2],3
same,Wheat plant response rating,wheat; [3],0
same,Wheat plant response rating,wheat; [4],4
same,Wheat plant response rating,wheat; [5],3
same,Wheat plant response rating,wheat; [6],10
same,"Plant response rating, Crabgrass",crabgrass; [1],2
same,Crabgrass plant response rating,crabgrass; [7],6
same,Crabgrass plant response rating,crabgrass; [2],9
same,Crabgrass plant response rating,crabgrass; [8],10
same,Crabgrass plant response rating,crabgrass; [3],9
same,Crabgrass plant response rating,crabgrass; [4],9
same,Crabgrass plant response rating,crabgrass; [5],6
same,Crabgrass plant response rating,crabgrass; [6],10
same,"Plant response rating, Cocklebur",cocklebur; [1],0
same,Cocklebur plant response rating,cocklebur; [7],0
same,Cocklebur plant response rating,cocklebur; [2],6
same,Cocklebur plant response rating,cocklebur; [3],0
same,Cocklebur plant response rating,cocklebur; [4],0
same,Cocklebur plant response rating,cocklebur; [5],2
same,Cocklebur plant response rating,cocklebur; [6],0
same,"Plant response rating, B. signalgrass",surinam grass; [1],0
same,B. signalgrass plant response rating,surinam grass; [7],2
same,B. signalgrass plant response rating,surinam grass; [8],10
same,B. signalgrass plant response rating,"surinam grass; Rate 62 g/ha, Preemergence, scale 0 (no effect) to 10 (complete control)",6
same,B. signalgrass plant response rating,surinam grass; [4],8
same,B. signalgrass plant response rating,surinam grass; [5],8
same,B. signalgrass plant response rating,surinam grass; [6],10
same,"Plant response rating, Morningglory",morningglory; [1],2
same,Morningglory plant response rating,morningglory; [7],2
same,Morningglory plant response rating,morningglory; [2],2
same,Morningglory plant response rating,morningglory; [3],2
same,Morningglory plant response rating,morningglory; [4],3
same,Morningglory plant response rating,morningglory; [5],2
same,Morningglory plant response rating,morningglory; [6],3
same,"Plant response rating, Blackgrass",blackgrass; [1],0
same,Blackgrass plant response rating,blackgrass; [7],5
same,Blackgrass plant response rating,blackgrass; [8],8
same,Blackgrass plant response rating,blackgrass; [3],0
same,Blackgrass plant response rating,blackgrass; [4],7
same,Blackgrass plant response rating,blackgrass; [5],6
same,Blackgrass plant response rating,blackgrass; [6],9
same,"Plant response rating, Soybean",soybean; [1],2
same,Soybean plant response rating,soybean; [2],4
same,Soybean plant response rating,soybean; [3],0
same,Soybean plant response rating,soybean; [4],0
same,Soybean plant response rating,soybean; [5],4
same,Soybean plant response rating,soybean; [6],0
same,"Plant response rating, Redroot pigweed",pigweed; [1],5
same,Redroot pigweed plant response rating,pigweed; [7],6
same,Redroot pigweed plant response rating,pigweed; [2],8
same,Redroot pigweed plant response rating,pigweed; [3],9
same,Redroot pigweed plant response rating,pigweed; [4],10
same,Redroot pigweed plant response rating,pigweed; [5],6
same,Redroot pigweed plant response rating,pigweed; [6],10
same,"Plant response rating, Nutsedge",purple nutsedge; [1],0
same,Nutsedge plant response rating,purple nutsedge; [7],3
same,Nutsedge plant response rating,purple nutsedge; [2],5
same,Nutsedge plant response rating,purple nutsedge; [3],0
same,Nutsedge plant response rating,purple nutsedge; [4],0
same,Nutsedge plant response rating,purple nutsedge; [6],4
same,"Plant response rating, Rape",rape; [1],0
same,Rape plant response rating,rape; [7],0
same,Rape plant response rating,rape; [2],0
same,Rape plant response rating,rape; [3],2
same,Rape plant response rating,rape; [4],5
same,Rape plant response rating,rape; [5],0
same,Rape plant response rating,rape; [6],9
